Test results published in publication PMC11775380, “Discovery of Novel Nav1.7-Selective Inhibitors with the 1H-Indole-3-Propionamide Scaffold for Effective Pain Relief” (Research, 2025).

Columns and labels:
[1] = system: native Na+ current (Nav channels) in DRG neurons; assay: Voltage-clamp recording of native Na+ current in DRG neurons; type: cell-based; settings: 10 μM; mouse DRG neurons
Experimental: (§1) To investigate the mechanism of action of WN2-R and facilitate animal model experiments, we used voltage-clamp recording to test the effects of WN2-R on the native Na^+-, K^+-, and Ca^2+-mediated currents in DRG neurons. […] Furthermore, the effects of WN2-R on membrane excitability were examined in small (<30 μm) DRG neurons from mice using current-clamp recordings.
(§2) DRG isolation and culture were performed according to our previous report. Briefly, C57BL/6 mice (weight 18 to 20 g, 6 to 8 weeks) were euthanized via cervical dislocation under anesthesia. Lumbar DRGs were isolated from the L4 to L5 segments of the lumbar spinal cord. The DRG neurons were subsequently dissociated through enzymatic digestion with collagenase (0.32 mg/ml) and trypsin (0.15 mg/ml) at 37 °C for 30 min, with intermittent shaking. After centrifugation at 800 rpm for 5 min at room temperature, the cells were seeded onto poly-L-lysine-coated coverslips and cultured in DMEM (Gibco) supplemented with 10% fetal bovine serum (Gibco). […]
(§3) For recording Nav currents of DRG neurons, the bath solution contains (in mM) 30 NaCl, 1 MgCl2, 1.8 CaCl2, 5 CsCl, 5 KCl, 25 D-glucose, 5 HEPES, 0.1 CdCl2, and TEA-Cl (pH 7.4 with NaOH), and the pipette solution contains (in mM) 135 CsCl, 10 NaCl, and 5 HEPES (pH 7.4 with CsOH). The Nav current program is recorded following the above method. […]

[2] = system: small (<30 μm) DRG neurons; assay: Current-clamp recording of action potential firing (membrane excitability); type: cell-based, mouse; settings: 10 μM
Experimental: as §1, §2, §3

[3] = molecular target: T1, hNav1.5 (Homo sapiens, UniProt Q14524); assay: Subtype selectivity, patch clamp; type: cell-based; settings: read-out: Inhibitory rate on Nav1.5
T1 construct: expressed in transfected cells; host or cells: HEK293T
Experimental: (§4) VGSC inhibitors required credible subtype selectivity to void side effects caused by binding to nontarget subtypes. At a concentration of 1 μM, the inhibitory rates of WN2-R on hNav1.2, hNav1.3, hNav1.4, hNav1.5, mNav1.6, and hNav1.8 were determined (n = 3 to 6, Fig. 7A). […] To further evaluate the drug safety profile, high-dose acute toxicity experiments were conducted. Mice were administered a high dose of 30 mg/kg WN2-R through i.p. administration. The rotarod test, forced-swim test, and open field test were used to explore the effect of high-dose WN2-R on the motor ability of mice (n = 4). The rotarod test evaluated the drug's effect on motor coordination, the forced-swim test examined its impact on the overall motor system, and the open field test assessed the drug's influence on the motor and nervous systems.
(§5) Human embryonic kidney (HEK) 293T (ATCC CRL-3216) and ND7/23 cells (National Collection of Authenticated Cell Cultures SCSP-5026) were cultured under standard conditions (5% CO2, 37 °C) in Dulbecco’s modified Eagle’s medium (DMEM) containing 10% fetal bovine serum and 1% penicillin-streptomycin solution(all from Gibco, Thermo Fisher Scientific, Waltham, MA, USA). When the cells reached 70% to 90% confluence, human Nav1.2 (hNav1.2), human Nav1.3 (hNav1.3), human Nav1.4 (hNav1.4), human Nav1.5 (hNav1.5), and mouse Nav1.6 (mNav1.6) channel plasmids were cotransfected with enhanced green fluorescent protein (eGFP) into HEK293T cells. Additionally, plasmids expressing β1 and β2 subunits tagged with eGFP were cotransfected with the human Nav1.7 (hNav1.7) channel into HEK293T cells. Human Nav1.8 (hNav1.8) was transiently transfected into ND7/23 cells, along with eGFP, using Lipofectamine 2000 (Invitrogen), adhering strictly to the manufacturer’s protocol. For manual patch-clamp experiments, the cells were plated onto glass coverslips and used within 20 to 48 h of transfection.
(§6) Whole-cell patch-clamp recordings were conducted at 25 ± 2 °C, utilizing an EPC 10USB patch-clamp amplifier (HEKA Elektronik, Lambrecht, Germany). Pipettes, with access resistance between 2.0 and 3.0 MΩ, were pulled from borosilicate glass capillary tubes using a 2-step vertical microelectrode puller (PC-10, Narishige Group, Tokyo, Japan). Voltage-clamp recordings were obtained with PatchMaster software v2 × 73 (HEKA Elektronik) 5 min after establishing whole-cell configuration, sampled at 20 kHz, and filtered at 5 kHz. To minimize voltage errors, 80% series resistance compensation was applied. Pipettes were filled with 140 mM CsF, 10 mM NaCl, 1 mM EGTA, and 10 mM HEPES (pH=7.4, adjusted with CsOH). The external solution contained 140 mM NaCl, 2 mM CaCl2, 1 mM MgCl2, 5 mM KCl, 10 mM HEPES, and 10 mM glucose (pH=7.4, adjusted with NaOH). IC50 values were determined in HEK293T or ND7/23 cell lines by voltage clamping at −80 mV, followed by stepping to the V1/2 of inactivation for 8 s to facilitate compound binding.

[4] = molecular target: T2, mNav1.6 (Mus musculus, UniProt Q9WTU3); assay: Subtype selectivity, patch clamp; type: cell-based; settings: 1 μM
T2 construct: expressed in transfected cells; host or cells: HEK293T
Experimental: as §4, §5, §6

[5] = molecular target: T3, hNav1.3 (Homo sapiens, UniProt Q9NY46); assay: Subtype selectivity, patch clamp; type: cell-based; settings: 1 μM
T3 construct: expressed in transfected cells; host or cells: HEK293T
Experimental: as §4, §5, §6

[6] = system: native Ca2+ current (Cav channels) in DRG neurons; assay: Voltage-clamp recording of native Ca2+ current in DRG neurons; type: cell-based; settings: 10 μM; mouse DRG neurons
Experimental: as §1, §2, §3

T3 sequence (Q9NY46 whole entry): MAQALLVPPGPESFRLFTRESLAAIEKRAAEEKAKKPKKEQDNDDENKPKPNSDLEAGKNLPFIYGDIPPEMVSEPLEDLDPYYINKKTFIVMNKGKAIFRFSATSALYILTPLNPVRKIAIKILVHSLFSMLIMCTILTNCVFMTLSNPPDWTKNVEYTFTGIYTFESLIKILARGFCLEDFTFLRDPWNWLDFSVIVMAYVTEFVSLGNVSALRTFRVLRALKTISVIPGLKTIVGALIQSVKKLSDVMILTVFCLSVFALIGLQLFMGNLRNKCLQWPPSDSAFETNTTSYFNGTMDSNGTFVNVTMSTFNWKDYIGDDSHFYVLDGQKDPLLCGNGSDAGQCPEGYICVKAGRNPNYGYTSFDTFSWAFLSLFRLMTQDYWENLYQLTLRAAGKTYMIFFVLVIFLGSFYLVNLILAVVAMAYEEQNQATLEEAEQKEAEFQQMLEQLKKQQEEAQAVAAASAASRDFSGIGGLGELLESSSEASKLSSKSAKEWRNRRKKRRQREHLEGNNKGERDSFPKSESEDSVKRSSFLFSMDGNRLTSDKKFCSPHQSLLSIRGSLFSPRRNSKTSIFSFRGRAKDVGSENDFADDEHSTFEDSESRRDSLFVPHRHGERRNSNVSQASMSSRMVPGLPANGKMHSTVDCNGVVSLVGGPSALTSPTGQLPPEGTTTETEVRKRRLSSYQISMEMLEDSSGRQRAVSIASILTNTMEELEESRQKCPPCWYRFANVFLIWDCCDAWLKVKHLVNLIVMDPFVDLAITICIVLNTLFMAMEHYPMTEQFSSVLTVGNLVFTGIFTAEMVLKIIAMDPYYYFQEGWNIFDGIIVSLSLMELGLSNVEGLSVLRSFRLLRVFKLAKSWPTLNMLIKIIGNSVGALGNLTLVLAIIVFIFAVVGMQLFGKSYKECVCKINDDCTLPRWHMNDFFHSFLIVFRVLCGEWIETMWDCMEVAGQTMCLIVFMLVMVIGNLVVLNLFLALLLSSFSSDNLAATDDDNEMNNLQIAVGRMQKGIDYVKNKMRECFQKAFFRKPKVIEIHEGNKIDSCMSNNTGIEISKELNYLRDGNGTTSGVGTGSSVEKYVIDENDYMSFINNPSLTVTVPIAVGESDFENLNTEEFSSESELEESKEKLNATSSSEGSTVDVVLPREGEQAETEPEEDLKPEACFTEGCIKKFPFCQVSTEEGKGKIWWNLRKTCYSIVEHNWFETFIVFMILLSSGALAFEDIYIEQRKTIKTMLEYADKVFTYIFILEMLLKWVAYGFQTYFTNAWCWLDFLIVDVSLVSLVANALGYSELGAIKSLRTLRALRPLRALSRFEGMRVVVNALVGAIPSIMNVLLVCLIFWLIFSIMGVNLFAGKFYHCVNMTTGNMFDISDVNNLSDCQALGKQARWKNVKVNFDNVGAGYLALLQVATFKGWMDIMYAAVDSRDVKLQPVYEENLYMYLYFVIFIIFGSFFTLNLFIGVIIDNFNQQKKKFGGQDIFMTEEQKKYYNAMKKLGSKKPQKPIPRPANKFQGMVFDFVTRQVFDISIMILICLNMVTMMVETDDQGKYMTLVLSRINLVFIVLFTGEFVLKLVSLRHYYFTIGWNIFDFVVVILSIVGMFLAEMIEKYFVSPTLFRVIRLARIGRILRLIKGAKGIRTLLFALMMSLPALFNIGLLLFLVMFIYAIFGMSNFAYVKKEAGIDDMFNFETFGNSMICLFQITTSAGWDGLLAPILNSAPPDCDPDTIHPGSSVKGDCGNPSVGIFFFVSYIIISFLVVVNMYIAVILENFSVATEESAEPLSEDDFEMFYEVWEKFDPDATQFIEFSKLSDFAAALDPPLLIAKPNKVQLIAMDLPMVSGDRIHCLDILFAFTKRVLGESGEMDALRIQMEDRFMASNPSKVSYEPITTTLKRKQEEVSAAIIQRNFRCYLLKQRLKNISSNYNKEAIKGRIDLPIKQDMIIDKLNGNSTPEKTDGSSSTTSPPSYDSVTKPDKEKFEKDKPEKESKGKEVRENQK
T2 sequence (Q9WTU3 whole entry): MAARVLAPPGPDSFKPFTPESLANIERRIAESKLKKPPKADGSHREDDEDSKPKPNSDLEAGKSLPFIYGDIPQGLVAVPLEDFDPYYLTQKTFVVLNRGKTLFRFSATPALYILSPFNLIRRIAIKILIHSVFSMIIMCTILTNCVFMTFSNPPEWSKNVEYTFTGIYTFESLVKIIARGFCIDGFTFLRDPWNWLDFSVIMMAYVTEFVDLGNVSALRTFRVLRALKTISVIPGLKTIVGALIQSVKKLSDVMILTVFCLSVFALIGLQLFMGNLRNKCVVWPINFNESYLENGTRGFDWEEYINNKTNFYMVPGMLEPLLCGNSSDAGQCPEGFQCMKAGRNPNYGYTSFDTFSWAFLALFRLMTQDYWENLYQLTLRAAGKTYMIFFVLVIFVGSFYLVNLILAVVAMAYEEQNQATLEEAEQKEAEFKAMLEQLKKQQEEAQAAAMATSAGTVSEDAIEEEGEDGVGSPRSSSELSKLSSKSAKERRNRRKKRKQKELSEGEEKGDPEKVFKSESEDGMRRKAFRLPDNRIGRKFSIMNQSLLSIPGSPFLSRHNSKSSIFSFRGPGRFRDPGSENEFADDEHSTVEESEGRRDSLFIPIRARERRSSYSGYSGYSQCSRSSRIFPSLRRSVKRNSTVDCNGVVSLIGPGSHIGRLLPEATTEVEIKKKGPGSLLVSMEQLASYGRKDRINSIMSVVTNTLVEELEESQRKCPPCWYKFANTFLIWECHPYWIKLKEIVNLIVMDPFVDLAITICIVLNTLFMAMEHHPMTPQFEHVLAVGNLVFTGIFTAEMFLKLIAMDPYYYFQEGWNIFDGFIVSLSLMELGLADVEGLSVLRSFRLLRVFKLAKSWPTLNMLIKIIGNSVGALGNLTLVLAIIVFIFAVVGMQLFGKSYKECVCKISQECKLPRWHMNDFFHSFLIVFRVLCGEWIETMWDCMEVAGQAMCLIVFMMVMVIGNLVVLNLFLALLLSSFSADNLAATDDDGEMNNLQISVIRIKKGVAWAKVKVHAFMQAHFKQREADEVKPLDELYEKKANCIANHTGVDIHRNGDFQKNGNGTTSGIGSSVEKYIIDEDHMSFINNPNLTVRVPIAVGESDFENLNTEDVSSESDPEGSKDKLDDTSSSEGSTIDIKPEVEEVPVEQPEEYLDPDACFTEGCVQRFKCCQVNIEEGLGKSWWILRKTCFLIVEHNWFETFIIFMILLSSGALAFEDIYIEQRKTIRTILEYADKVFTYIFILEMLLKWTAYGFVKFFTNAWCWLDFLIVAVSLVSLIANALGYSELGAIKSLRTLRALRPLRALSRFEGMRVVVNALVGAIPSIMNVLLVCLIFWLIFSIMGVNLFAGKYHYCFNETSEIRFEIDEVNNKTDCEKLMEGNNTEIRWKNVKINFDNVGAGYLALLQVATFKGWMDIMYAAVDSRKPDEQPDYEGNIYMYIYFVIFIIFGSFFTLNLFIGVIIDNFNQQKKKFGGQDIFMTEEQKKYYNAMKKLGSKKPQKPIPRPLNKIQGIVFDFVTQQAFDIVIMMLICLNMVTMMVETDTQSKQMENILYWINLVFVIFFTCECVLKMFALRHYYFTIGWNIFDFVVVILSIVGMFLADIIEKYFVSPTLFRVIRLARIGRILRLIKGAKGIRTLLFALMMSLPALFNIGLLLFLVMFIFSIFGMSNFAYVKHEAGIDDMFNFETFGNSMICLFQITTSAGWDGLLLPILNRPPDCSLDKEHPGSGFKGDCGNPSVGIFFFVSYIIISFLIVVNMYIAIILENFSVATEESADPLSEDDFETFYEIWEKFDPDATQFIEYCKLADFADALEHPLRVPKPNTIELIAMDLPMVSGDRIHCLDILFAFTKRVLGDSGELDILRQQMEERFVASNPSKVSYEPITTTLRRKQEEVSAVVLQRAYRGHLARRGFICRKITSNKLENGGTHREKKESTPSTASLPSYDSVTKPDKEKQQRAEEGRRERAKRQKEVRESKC

In the case of `Cc1ccc(Cn2cc([C@H](CC(=O)NCCN(C)C)c3ccc(F)cc3)c3ccccc32)cc1` [WN2-R], the “Effect on native Na+ current” value [1] is reported as “completely inhibited”, the “Action potential (AP) firing in response to depolarizing currents” value [2] is reported as “markedly reduced” and the inhibition at 1 µM [3] is reported as 19.1%. The “Inhibitory rate on mNav1.6” value [4] was “much lower than that on Nav1.7”, the “Inhibitory rate on hNav1.3” value [5] was “much lower than that on Nav1.7” and the “Effect on native Ca2+ current” value [6] was “almost no effect”.
